Data published in PMC9312958, “A Novel and Selective Dopamine Transporter Inhibitor, (S)-MK-26, Promotes Hippocampal Synaptic Plasticity and Restores Effort-Related Motivational Dysfunctions” (Biomolecules, 2022).

System: extracellular dopamine levels
Assay: In vivo microdialysis of extracellular dopamine (mPFC, NAc shell, NAc core)
Design: species or system Male Sprague Dawley rats
Conditions: for DA Concentrations (as Determined from AUCs): mean ± SEM
Procedure: Male Sprague Dawley rats (250–350 g, Janvier, France) were used for all in vivo microdialysis experiments. Animals were kept in groups of four in standard cages (38 cm × 60 cm × 20 cm) and were acclimated to the facility for at least ten days before the beginning of the experiment under controlled environmental conditions (22 ± 2 °C, 60% humidity, 12 h light/dark cycle, with lights on from 08:00 to 20:00 h), with water and standard laboratory food provided ad libitum. To limit the stress due to manipulation during the experiments, each animal was daily handled for approximately 1–2 min throughout the habituation period and contact with the animal house maintenance personnel was limited to a single attendant. The bedding in the home cages was never changed, neither the day before nor the day of the experiment. All experiments were performed between 10:00–18:00 h. (S)-MK-26 (1 or 10 mg/kg) or vehicle (Kolliphor 30% in distilled water) were freshly prepared on the day of the experiment and i.p. administered at a volume of 1.5 mL/kg. The day before the microdialysis experiment, rats were positioned in a stereotaxic apparatus (Stoelting Co., Wood Dale, IL, USA) and under isoflurane anaesthesia (1.5–2%) (Harvard Apparatus, Holliston, MA, USA) implanted with a vertical microdialysis probe. A probe with dialysis membrane of approximately 2–3 mm of free surface (prepared as previously described) was directed unilaterally at the mPFC (PrL and IL; coordinates: 3.0 mm anterior and 0.7 mm lateral to bregma, and 5.5 mm ventral to dura), at the NAc shell (coordinates: 2.0 mm anterior and 0.8 mm lateral to bregma, and 8.0 mm ventral to dura) or NAc core (coordinates: 1.6 mm anterior and 1.6 mm lateral to bregma, and 7.6 mm ventral to dura), according to the rat brain atlas. On the day of the experiment, the animals were transferred to a sound-proof room and after 1 h habituation period, the microdialysis probe was connected with polyethylene tubing to a CMA/100 microinfusion pump (Harvard Apparatus, Holliston, MA, USA) and perfused with a Ringer’s solution (147 mM NaCl, 3 mM KCl and 1.2 mM CaCl2, pH 6.5) at a flow rate of 2.5 µL/min. After an equilibration period of a 2 h of the perfusion medium with the extracellular fluid, dialysate aliquots of 37.5 µL were collected (every 15 min during the experiment) in polyethylene tubes kept on ice for the determination of dopamine concentrations. After collecting at least four dialysate aliquots, rats were i.p. injected with vehicle or (S)-MK-26 (1 or 10 mg/kg), and ten more dialysate aliquots were collected every 15 min. Dopamine concentrations in the dialysates from the NAc (core and shell) and mPFC were measured by high pressure liquid chromatography (HPLC) on a 7.5 cm × 3.0 mm i.d., Supelcosil C18, 3 µm particle size column, (Supelco, Supelchem, Milan, Italy) coupled to electrochemical detection (Coulochem II, ESA, Cambridge, MA, USA) using a 4011 dual cell, as previously described. Detection was performed in reduction mode, with potentials set to +350 and −180 mV. The mobile phase was 0.06 M citrate/acetate pH 4.2, containing methanol 20% v/v, 0.1 mM EDTA, 1 µM triethylamine, and 0.03 mM sodium dodecyl sulphate at a flow rate of 0.6 mL/min. The sensitivity of the assay was 0.125 pg. At the end of the experiments, the rats were sacrificed by decapitation; the brains were immediately removed from the skull and stored in 4% aqueous formaldehyde for 12–15 days. After this period, 40 µm coronal brain sections were prepared with a freezing microtome, stained with Neutral Red and inspected on a phase contrast microscope. The position of the tip of the microdialysis probe in the NAc (core and shell) and mPFC were then corroborated by following the tract of the microdialysis probe through a series of brain sections. […]

## [O-][S@@+](Cc1cncs1)C(c1cccc(Cl)c1)c1cccc(Cl)c1 [(S)-MK-26, (S)-5-(((B(3-chlorophenyl)methyl)sulphinyl)methyl)thiazole]
NAc core dialysate, 1 mg/kg i.p.
  DA Concentrations (as Determined from AUCs): 3056 ± 644
NAc core dialysate, 10 mg/kg i.p.
  DA Concentrations (as Determined from AUCs): 7861 ± 1697
NAc core, 1 mg/kg i.p.
  peak increase of extracellular dopamine concentration above basal values: about 25%
NAc core, 10 mg/kg i.p., peak 60–75 min after treatment
  peak increase of extracellular dopamine concentration: about 65%
NAc shell dialysate, 1 mg/kg i.p.
  DA Concentrations (as Determined from AUCs): 2972 ± 1094
NAc shell dialysate, 10 mg/kg i.p.
  DA Concentrations (as Determined from AUCs): 7730 ± 1389
NAc shell, 10 mg/kg i.p., peak 30–45 min after treatment
  peak increase of extracellular dopamine concentration: about 70%
mPFC dialysate, 1 mg/kg i.p.
  DA Concentrations (as Determined from AUCs): 3159 ± 223
mPFC dialysate, 10 mg/kg i.p.
  DA Concentrations (as Determined from AUCs): 4983 ± 547
mPFC, 1 mg/kg i.p., peak at 30 min after treatment
  peak increase of extracellular dopamine concentration: about 40%
mPFC, 10 mg/kg i.p., peak at 45 min after treatment
  peak increase of extracellular dopamine concentration: about 75%
